The text below walks through data of patent US11186566B2, “Modulator of cystic fibrosis transmembrane conductance regulator, pharmaceutical compositions, methods of treatment, and process for making the modulator” (Vertex Pharmaceuticals Incorporated, priority 2016, dated 2021).

The structures appear in SMILES notation. Where two headings read alike, the source gives them in different places.

The target of one series is F508del-CFTR (Homo sapiens (Human), UniProt P13569, DEL508-508). Briefly: Membrane potential optical (fluorescent voltage sensing dye, FLIPR III) HTS assay for F508del-CFTR modulators. Type of series: cell-based. The source says: Membrane Potential Optical Methods for Assaying Properties of F508del-CFTR Modulators
Chain of F508del-CFTR (P13569 other isoform, or with tags, fused parts or gaps del F508-F508): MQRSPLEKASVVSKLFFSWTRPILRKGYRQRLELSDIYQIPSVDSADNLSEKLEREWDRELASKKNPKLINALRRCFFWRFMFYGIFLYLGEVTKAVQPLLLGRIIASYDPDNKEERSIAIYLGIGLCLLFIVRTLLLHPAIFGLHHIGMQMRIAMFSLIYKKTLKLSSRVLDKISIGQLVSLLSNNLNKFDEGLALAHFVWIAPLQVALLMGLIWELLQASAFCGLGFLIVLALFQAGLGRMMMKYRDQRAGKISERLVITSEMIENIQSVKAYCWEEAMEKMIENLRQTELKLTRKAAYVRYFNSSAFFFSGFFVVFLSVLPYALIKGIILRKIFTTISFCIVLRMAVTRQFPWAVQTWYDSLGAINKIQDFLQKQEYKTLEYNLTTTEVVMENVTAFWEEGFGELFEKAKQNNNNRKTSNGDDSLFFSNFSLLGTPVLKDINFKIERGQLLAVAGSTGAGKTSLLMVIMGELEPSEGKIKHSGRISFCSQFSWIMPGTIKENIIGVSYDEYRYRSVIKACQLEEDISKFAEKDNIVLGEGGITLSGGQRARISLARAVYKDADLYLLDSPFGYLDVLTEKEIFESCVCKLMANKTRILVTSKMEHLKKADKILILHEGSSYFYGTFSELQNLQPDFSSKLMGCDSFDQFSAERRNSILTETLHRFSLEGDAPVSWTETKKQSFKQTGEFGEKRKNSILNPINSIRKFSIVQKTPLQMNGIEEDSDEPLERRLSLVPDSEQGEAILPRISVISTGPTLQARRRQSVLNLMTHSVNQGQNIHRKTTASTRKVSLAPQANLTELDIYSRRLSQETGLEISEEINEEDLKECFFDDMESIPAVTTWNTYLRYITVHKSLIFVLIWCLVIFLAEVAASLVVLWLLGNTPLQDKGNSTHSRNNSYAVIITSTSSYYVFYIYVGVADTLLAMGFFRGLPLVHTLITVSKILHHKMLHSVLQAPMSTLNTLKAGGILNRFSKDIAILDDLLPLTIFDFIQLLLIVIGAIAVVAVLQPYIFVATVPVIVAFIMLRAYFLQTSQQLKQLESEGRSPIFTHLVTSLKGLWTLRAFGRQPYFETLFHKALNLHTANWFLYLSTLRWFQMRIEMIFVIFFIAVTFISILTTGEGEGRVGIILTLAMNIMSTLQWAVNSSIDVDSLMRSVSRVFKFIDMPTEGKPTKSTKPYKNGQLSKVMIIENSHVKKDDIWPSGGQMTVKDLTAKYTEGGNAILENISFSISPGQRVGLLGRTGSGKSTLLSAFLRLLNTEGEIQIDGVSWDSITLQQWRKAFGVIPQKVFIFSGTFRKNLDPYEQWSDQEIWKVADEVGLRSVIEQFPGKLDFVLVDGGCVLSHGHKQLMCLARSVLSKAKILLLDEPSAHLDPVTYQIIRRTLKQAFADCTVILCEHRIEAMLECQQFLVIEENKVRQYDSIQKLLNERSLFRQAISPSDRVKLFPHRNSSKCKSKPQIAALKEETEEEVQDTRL
The assay utilizes fluorescent voltage sensing dyes to measure changes in membrane potential using a fluorescent plate reader (e.g., FLIPR III, Molecular Devices, Inc.) as a readout for increase in functional F508del in NIH 3T3 cells.
5A-A1. Identification of F508Del-CFTR Modulators
To identify modulators of F508del, a fluorescence based HTS assay format was developed. This HTS assay utilizes fluorescent voltage sensing dyes to measure changes in membrane potential on the FLIPR III as a measurement for increase in gating (conductance) of F508del NIH 3T3 cells.
(in mM) NaCl 160, KCl 4.5, CaCl2 2, MgCl2 1, HEPES 10, pH 7.4 with NaOH, Glucose 10.
Chloride salts in Bath Solution #1 (above) are substituted with gluconate salts.
NIH3T3 mouse fibroblasts stably expressing F508del are used for optical measurements of membrane potential. The cells are maintained at 37° C. in 5% CO2 and 90% humidity in Dulbecco's modified Eagle's medium supplemented with 2 mM glutamine, 10% fetal bovine serum, 1×NEAA, β-ME, 1×pen/strep, and 25 mM HEPES in 175 cm^2 culture flasks. For all optical assays, the cells were seeded at 12,000 cells/well in 384-well matrigel-coated plates and cultured for 18-24 hrs at 37° C. for the potentiator assay. For the correction assays, the cells are cultured at 37° C. with and without compounds for 18-24 hours.

For another series, the target named is human PXR (Homo sapiens (Human), UniProt O75469). Description: PXR assay (PXR mediated CYP3A4 induction, DPX-2 cell line). Particulars: DPX-2 cells, 48 hours, 0.1 to 60 μM. It counts as cell-based. As to the method: 5D. Experimental Protocol for PXR Assay
Chain of human PXR (O75469 whole entry): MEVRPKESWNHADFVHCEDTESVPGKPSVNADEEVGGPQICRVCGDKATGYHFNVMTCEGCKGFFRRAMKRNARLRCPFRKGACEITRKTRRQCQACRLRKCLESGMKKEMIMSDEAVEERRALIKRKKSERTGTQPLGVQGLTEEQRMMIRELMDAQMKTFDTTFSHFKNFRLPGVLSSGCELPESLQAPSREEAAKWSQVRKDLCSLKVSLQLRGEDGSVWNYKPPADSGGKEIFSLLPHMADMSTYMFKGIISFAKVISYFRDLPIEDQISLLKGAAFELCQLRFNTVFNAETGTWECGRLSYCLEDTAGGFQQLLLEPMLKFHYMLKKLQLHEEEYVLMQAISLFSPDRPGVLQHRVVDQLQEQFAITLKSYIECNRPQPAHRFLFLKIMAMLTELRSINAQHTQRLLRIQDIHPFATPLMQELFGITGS
The propensity for PXR mediated CYP3A4 induction is assessed using the DPX-2 cell line in vitro. This cell line, which has been licensed from Puracyp Inc. was derived from HepG2 cells and has been stably transfected with genes encoding human PXR as well as a modified luciferase reporter linked to the CYP3A4 promoter region and related distal and proximal enhancers.
The assay is run in 384 well format and each test article is administered in 11 doses ranging from 0.1 to 60 μM. On day 1, DPX-2 cells which have previously been expanded in-house and cryopreserved are thawed and seeded in tissue culture plates. The following day, media is changed and cells are cultured in media containing test article, vehicle control or the positive control compound, the clinically validated CYP3A4 inducer rifampicin. Cells are cultured in the presence of test article for 48 hours and then cell viability is assessed using fluorescence based assay (Cell Titer-Fluor, Promega) with an EnVision Plate Reader (PerkinElmer). Subsequently, CYP3A4 transactivation, which is proportional to luciferase activity, is measured by reading luminescense using the Promega One-Glo reagent system using the same plate reader.
Data processing within the Genedata software package allows reporting of max fold induction compared to vehicle control, an EC50 value for CYP3A4 inducers and an 11 point-dose response curve.

The nature of another series: Rat IV and PO PK studies. It counts as in vivo, male Sprague-Dawley rats. The note with it: male, Sprague-Dawley, plasma; for clearance: intravenous, 3.0 mg/kg, read-out: Rat iv CL. Here is the method:
5C. Experimental Protocol for Rat IV and PO PK Studies
[…] […] Analyses of plasma and dose preparations were performed using LC/MS/MS.
Plasma concentration-time profiles of the tested compound in Sprague-Dawley rats at scheduled (nominal) sampling times were analyzed by noncompartmental pharmacokinetic methods using PK function within Watson LIMS software, Version 7.4.2 (Thermo Scientific Inc, Waltham, Mass.). AUC values were calculated using the linear trapezoidal rule.

The mark [1] stands for this setting: F508del NIH 3T3 cells, assay 5A-A1, read-out: CFTRdF508 EC50.
Setting [2] is: Table 9, read-out: CFTR dF508 EC50.

Broadly, the EC50 is the concentration at which the effect is half-maximal. For the molecule `C[C@@H]1CN(c2nc(-n3ccc(COCC4(C(F)(F)F)CC4)n3)ccc2C(=O)NS(=O)(=O)c2ccccc2)C(C)(C)C1` [Comp. 37, N-(Benzenesulfonyl)-6-[3-[[1-(trifluoromethyl)cyclopropyl]methoxymethyl]pyrazol-1-yl]-2-[(4S)-2,2,4-trimethylpyrrolidin-1-yl]pyridine-3-carboxamide], the EC50 at F508del-CFTR (setting [1]) was under 100 nM; at F508del-CFTR (setting [2]), 70 nM. Also, at human PXR, the “PXR Max Induction (% of rifampicin)” value is 8 % of rifampicin.

`C[C@@H]1CN(c2nc(-n3ccc(O[C@H]4C[C@H]5CC[C@@H]4C5)n3)ccc2C(=O)NS(=O)(=O)c2ccccc2)C(C)(C)C1` [Comp. 39, N-(benzenesulfonyl)-6-[3-[(1R,2S,4S)-norbornan-2-yl]oxypyrazol-1-yl]-2-[(4S)-2,2,4-trimethylpyrrolidin-1-yl]pyridine-3-carboxamide]: the figures for the EC50 on F508del-CFTR (setting [1]) and at F508del-CFTR (setting [2]) were under 100 nM and 70 nM, respectively. Besides, at human PXR, the “PXR Max Induction (% of rifampicin)” value is given as 13 % of rifampicin.

Consider `C[C@@H]1CN(c2nc(-n3ccc(OCC4C[C@@H]5CC[C@@H]4C5)n3)ccc2C(=O)NS(=O)(=O)c2ccccc2)C(C)(C)C1` (stereo partly drawn) [Comp. 40, N-(Benzenesulfonyl)-6-[3-[[(1R,4R)-norbornan-2-yl]methoxy]pyrazol-1-yl]-2-[(4S)-2,2,4-trimethylpyrrolidin-1-yl]pyridine-3-carboxamide], for which the 50% effective concentration (EC50) is under 100 nM at F508del-CFTR (setting [1]) and 80 nM at F508del-CFTR (setting [2]). In addition, the “PXR Max Induction (% of rifampicin)” value at human PXR is given as 2 % of rifampicin.

For `C[C@@H]1CN(c2nc(-n3ccc(OCCC4(C(F)(F)F)CC4)n3)ccc2C(=O)NS(=O)(=O)c2ccccc2Cl)C(C)(C)C1` [Comp. 43, N-(2-chlorophenyl) sulfonyl-6-[3-[2-[1-(trifluoromethyl)cyclopropyl]ethoxy]pyrazol-1-yl]-2-[(4S)-2,2,4-trimethylpyrrolidin-1-yl]pyridine-3-carboxamide], the half-maximal effective concentration (EC50) on F508del-CFTR (setting [1]) is under 100 nM; on F508del-CFTR (setting [2]), 50 nM. Besides, the “PXR Max Induction (% of rifampicin)” value on human PXR was 12 % of rifampicin.

As for `COc1cccc(S(=O)(=O)NC(=O)c2ccc(-n3ccc(OCC4(C(F)(F)F)CC4)n3)nc2N2C[C@@H](C)CC2(C)C)c1` [Comp. 49, N-(3-methoxyphenyl)sulfonyl-6-[3-[[1-(trifluoromethyl)cyclopropyl]methoxy]pyrazol-1-yl]-2-[(4S)-2,2,4-trimethylpyrrolidin-1-yl]pyridine-3-carboxamide], the EC50 at F508del-CFTR (setting [1]) was under 100 nM; at F508del-CFTR (setting [2]), 20 nM. In addition, the “PXR Max Induction (% of rifampicin)” value on human PXR is reported as 19 % of rifampicin.

Turning to `C[C@@H]1CN(c2nc(-n3ccc(OCC4(C(F)(F)F)CC4)n3)ccc2C(=O)NS(=O)(=O)c2ccccc2F)C(C)(C)C1` [Comp. 50, N-(2-fluorophenyl)sulfonyl-6-[3-[[1-(trifluoromethyl)cyclopropyl]methoxy]pyrazol-1-yl]-2-[(4S)-2,2,4-trimethylpyrrolidin-1-yl]pyridine-3-carboxamide], the EC50 on F508del-CFTR (setting [1]) is under 100 nM; on F508del-CFTR (setting [2]), 30 nM. The “PXR Max Induction (% of rifampicin)” value at human PXR is 32 % of rifampicin.

Take `C[C@@H]1CN(c2nc(-n3ccc(OCC4(C(F)F)CC4)n3)ccc2C(=O)NS(=O)(=O)c2ccccc2)C(C)(C)C1` [Comp. 55, N-(Benzenesulfonyl)-6-[3-[[1-(difluoromethyl)cyclopropyl]methoxy]pyrazol-1-yl]-2-[(4S)-2,2,4-trimethylpyrrolidin-1-yl]pyridine-3-carboxamide]: the half-maximal effective concentration (EC50) at F508del-CFTR (setting [1]) was under 100 nM; on F508del-CFTR (setting [2]) it was 50 nM. Further, the “PXR Max Induction (% of rifampicin)” value at human PXR is 22 % of rifampicin.

Regarding `COc1ccc(S(=O)(=O)NC(=O)c2ccc(-n3ccc(OCC4(C(F)(F)F)CC4)n3)nc2N2C[C@@H](C)CC2(C)C)c(C)c1` [Comp. 57, N-(4-Methoxy-2-methyl-phenyl)sulfonyl-6-[3-[[1-(trifluoromethyl)cyclopropyl]methoxy]pyrazol-1-yl]-2-[(4S)-2,2,4-trimethylpyrrolidin-1-yl]pyridine-3-carboxamide], the EC50 on F508del-CFTR (setting [1]) was under 100 nM; at F508del-CFTR (setting [2]), 80 nM. Also, at human PXR, the “PXR Max Induction (% of rifampicin)” value is 2 % of rifampicin.

Consider `Cc1ccccc1S(=O)(=O)NC(=O)c1ccc(-n2ccc(OCC3(C(F)(F)F)CCC3)n2)nc1N1C[C@@H](C)CC1(C)C` [Comp. 58, N-(o-Tolylsulfonyl)-6-[3-[[1-(trifluoromethyl)cyclobutyl]methoxy]pyrazol-1-yl]-2-[(4S)-2,2,4-trimethylpyrrolidin-1-yl]pyridine-3-carboxamide], for which the 50% effective concentration (EC50) was under 100 nM at F508del-CFTR (setting [1]) and 50 nM at F508del-CFTR (setting [2]). Further, the “PXR Max Induction (% of rifampicin)” value on human PXR is 4 % of rifampicin.

For orientation: AUC means the area under the concentration-time curve, a measure of exposure. In the case of `C[C@@H]1CN(c2nc(-n3ccc(OCC(C)(C)C)n3)ccc2C(=O)NS(=O)(=O)c2cccnc2N)C(C)(C)C1` [Comp. A, reference compound], the “PXR Max Induction (% of rifampicin)” value at human PXR is 2 % of rifampicin. In addition, the bioavailability in the series “Rat IV and PO PK studies” (3 mg/kg, oral, read-out: Rat po % F) came to 28%. The clearance in the series “Rat IV and PO PK studies” came to 17.8 mL/min/kg. Besides, in “Rat IV and PO PK studies” (oral, 10 mg/kg for Compound A, read-out: Rat po AUC), the AUC came to 1200 ng·h/mL.

On to `C[C@@H]1CN(c2nc(-n3ccc(OCC(C)(C)C)n3)ccc2C(=O)NS(=O)(=O)c2ccccc2)C(C)(C)C1` [Comp. B, reference compound], for which the “PXR Max Induction (% of rifampicin)” value on human PXR is reported as 9 % of rifampicin. In “Rat IV and PO PK studies”, the clearance stood at 29.2 mL/min/kg.

As for `C[C@@H]1CN(c2nc(-n3ccc(OCC4CC4)n3)ccc2C(=O)NS(=O)(=O)c2cccnc2N)C(C)(C)C1` [Comp. D, reference compound], at F508del-CFTR (setting [2]), the half-maximal effective concentration (EC50) was found to be 400 nM. Further, at human PXR, the “PXR Max Induction (% of rifampicin)” value is listed as 20 % of rifampicin.

Consider `Cc1ccccc1S(=O)(=O)NC(=O)c1ccc(-n2ccc(OCCC3(C(F)(F)F)CC3)n2)nc1N1C[C@@H](C)CC1(C)C` [Compound 4, N-(o-Tolylsulfonyl)-6-[3-[2-[1-(trifluoromethyl)cyclopropyl]ethoxy]pyrazol-1-yl]-2-[(4S)-2,2,4-trimethylpyrrolidin-1-yl]pyridine-3-carboxamide], for which the EC50 is under 100 nM at F508del-CFTR (setting [1]) and 20 nM on F508del-CFTR (setting [2]). In addition, the “PXR Max Induction (% of rifampicin)” value at human PXR was 4 % of rifampicin.

Turning to `COc1ccc(S(=O)(=O)NC(=O)c2ccc(-n3ccc(OCC4(C(F)(F)F)CC4)n3)nc2N2C[C@@H](C)CC2(C)C)c(OC)c1` [Compound 13, N-(2,4-Dimethoxyphenyl)sulfonyl-6-[3-[[1-(trifluoromethyl)cyclopropyl]methoxy]pyrazol-1-yl]-2-[(4S)-2,2,4-trimethylpyrrolidin-1-yl]pyridine-3-carboxamide], the EC50 on F508del-CFTR (setting [1]) is 100 to 1000 nM; on F508del-CFTR (setting [2]), 110 nM. For the same molecule, the “PXR Max Induction (% of rifampicin)” value on human PXR was 2 % of rifampicin.

Consider `Cc1ccccc1S(=O)(=O)NC(=O)c1ccc(-n2ccc(OCC3C(C)(C)C3(C)C)n2)nc1N1C[C@@H](C)CC1(C)C` [Compound 15, N-(o-Tolylsulfonyl)-6-[3-[(2,2,3,3-tetramethylcyclopropyl)methoxy]pyrazol-1-yl]-2-[(4S)-2,2,4-trimethylpyrrolidin-1-yl]pyridine-3-carboxamide], for which the EC50 is under 100 nM on F508del-CFTR (setting [1]) and 20 nM on F508del-CFTR (setting [2]). The “PXR Max Induction (% of rifampicin)” value on human PXR was 0 % of rifampicin.

Consider `C[C@@H]1CN(c2nc(-n3ccc(OCCC4(C(F)(F)F)CC4)n3)ccc2C(=O)NS(=O)(=O)c2ccc(O)cc2)C(C)(C)C1` [Compound 31, N-(4-Hydroxyphenyl)sulfonyl-6-[3-[2-[1-(trifluoromethyl)cyclopropyl]ethoxy]pyrazol-1-yl]-2-[(4S)-2,2,4-trimethylpyrrolidin-1-yl]pyridine-3-carboxamide], for which the half-maximal effective concentration (EC50) at F508del-CFTR (setting [1]) is under 100 nM; at F508del-CFTR (Table 7, Compound 1 and metabolites, read-out: CFTRdF508 EC50), 30 nM; on F508del-CFTR (setting [2]) it was 30 nM. Also, the “PXR Max Induction (% of rifampicin)” value on human PXR is reported as 7 % of rifampicin.
